According to patent publication US20260176289A1, “SMALL MOLECULE INHIBITORS OF KRAS PROTEINS” (Merck Sharp & Dohme LLC, priority 2022, published 2026):

How the values were obtained:
NRAS = NRAS (Homo sapiens, UniProt P01111); test: SOS-catalyzed nucleotide exchange assay (Procedure A, TR-FRET), NRAS; format: biochemical; conditions: read-out: NRAS GNE IC50
Text: Procedure for SOS-Catalyzed Nucleotide Exchange Assay for KRAS-WT, G12C/D/V, G13D, HRAS, and NRAS (Procedure A)
Recombinant KRAS-G12C protein used in this assay has an additional triple mutation (C51S/C80L/C118S). Whereas KRAS-WT, G12D/V, G13D, HRAS and NRAS are in context of their WT protein sequence background. Specifically, the SOS-catalyzed nucleotide exchange assay utilizes a preformed TR-FRET complex containing a specific biotinylated RAS protein (KRAS-WT, G12C/V/D, G13D, HRAS, NRAS; described above) with Bodipy-GDP, and Terbium-streptavidin. Compounds are preincubated with this complex for 60 minutes. Subsequently, recombinant human SOS protein and unlabeled GTP are added to initiate the exchange reaction. Small molecule inhibitors stabilize the Bodipy-GDP complex whereas the untreated protein rapidly exchanges Bodipy-GDP for unlabeled GTP resulting in reduced TR-FRET signal.
To assemble the preformed TR-FRET complexes, each biotinylated RAS protein is diluted to 2 μM in an EDTA Buffer (20 mM HEPES pH 7.5, 50 mM sodium chloride, 10 mM EDTA, and 0.01% Tween) and incubated at room temperature for one hour. This mixture is then further diluted to 90 nM in an Assay Buffer (20 mM HEPES pH 7.5, 150 mM sodium chloride, 10 mM magnesium chloride, and 0.005% Tween) containing 15 nM of Terbium-Streptavidin (Invitrogen, catalog #PV3577) and 900 nM of Bodipy-GDP (Invitrogen, catalog #G22360) and incubated at room temperature for six hours. It should be noted that this preformed TR-FRET complex for each of the RAS protein were made ahead of time, aliquoted and stored at −80° C. until the day of the experiment.
Each test compound (10 mM stock in DMSO) is diluted in DMSO to make a final-10-point, 3-fold dilution and is acoustically dispensed into a 384-well assay plate (Corning, catalog #3820) using an Echo 550 (Labcyte). Each well of the assay plate receives 3 μL of a specific 3×RAS preformed TR-FRET complex and 3 μL of Assay Buffer and is incubated at room temperature for 60 minutes (preincubation time). Each well then receives 3 μL of 3×recombinant human SOS protein and GTP (Sigma, G8877) in Assay Buffer and is incubated at room temperature for 30 minutes (G13D), 60 minutes (KRAS WT/G12C/D, H/NRAS) or 90 minutes for G12V. […]
The time-resolved fluorescence resonance energy transfer (TR-FRET) signal is measured on an Envision (PerkinElmer) plate reader: Excitation filter=340 nm; emission 1=495 nm; emission2=520 nm; dichroic mirror=D400/D505; delay time=[…]. The signal of each well is determined as the ratio of the emission at 520 nm to that at 495 nm. Percent effect of each well is determined after normalization to control wells containing DMSO (no effect) or a saturating concentration of inhibitor (max effect). […]

PANC08.13 cells = test: Cellular phospho-ERK assay, PANC08.13 cells (homozygous KRAS-G12D); format: cell-based; conditions: Homo sapiens, PANC-08-13, KRAS-G12D, 2 hours, read-out: PANC-08.13 pERK IC50
Procedure, shortened: (§1)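 Cells were seeded overnight, then treated 2 h at 37° C with compound in a 10-point, 1:3 titration from 30 μM top final concentration. Lysates were assayed by AlphaLISA SureFire Ultra for p-ERK and total ERK. IC50 came from a 4-parameter logistic fit of the p-ERK/total ERK ratio.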

AsPC-1 cells = test: Cellular phospho-ERK assay, AsPC-1 cells (homozygous KRAS-G12D); format: cell-based; conditions: Homo sapiens, ASPC1, 2 h, KRAS-G12D, 2 hours, read-out: AsPC1 pERK IC50
Procedure, shortened: as §1

Sequence of NRAS (P01111 with tags, fused parts or gaps): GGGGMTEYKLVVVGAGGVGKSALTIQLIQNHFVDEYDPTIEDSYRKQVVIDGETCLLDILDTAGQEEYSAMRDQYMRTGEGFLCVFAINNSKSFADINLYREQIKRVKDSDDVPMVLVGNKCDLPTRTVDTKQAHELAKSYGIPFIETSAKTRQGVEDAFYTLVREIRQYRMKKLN

## C#Cc1c(F)ccc2cc(O)cc(-c3nccc4c5c(N6CCOC[C@@](C)(O)C6)nc(OC[C@@]67CCCN6C[C@H](F)C7)nc5n(C)c34)c12 [Ex-18, (S)-4-(8-(8-ethynyl-7-fluoro-3-hydroxynaphthalen-1-yl)-2-(((2R,7aS)-2-fluorotetrahydro-1H-pyrrolizin-7a(5H)-yl)methoxy)-9-methyl-9H-pyrido[4′,3′:4,5]pyrrolo[2,3-d]pyrimidin-4-yl)-6-methyl-1,4-oxazepan-6-ol]
NRAS
  IC50: 8.82 µM
PANC08.13 cells
  IC50: 0.00454 µM
AsPC-1 cells
  IC50: 0.0298 µM
